Like-named read-outs stand apart in the source and are kept apart here. Marks after values point to notes of the source that are not given here.
Columns and labels:
Kunming mice = assay type: in vivo; settings: for Bodyweight End: end of 14 d observation; for Amount (start/end), survival: observed 14 d
Description: All animals were given a single oral gavage of 0.2 mL of different dosage forms, and their body weight was monitored every day. Meanwhile, the toxicity and mortality of all animals were observed every day. The conventional changes such as the cases of the diet, urine, and feces were recorded. On the 15th day after treatment, the blood of each group was collected from the heart and centrifuged at 1,000 × g for 10 min to collect serum. An automated biochemical analyzer was used to detect serum alanine aminotransferase (ALT), aspartate aminotransferase (AST), blood urea nitrogen (BUN), and creatinine (Cr). Meanwhile, the heart, liver, lung, and kidney were quickly excised, washed with normal saline, and weighed. The visceral index is estimated according to the following formula as Viscera Index (%) = Viscera Weight / Body Weight × 100. And then, all the tissues were fixed with 10% formalin and stained with hematoxylin & eosin (H&E) for pathological analysis.

SW620 xenografts [1] = experiment: Pharmacodynamic evaluation, tumor growth inhibition; assay type: in vivo, BALB/C nude mice; settings: every two days for 7 times, tumor weight on day 25 post-implantation
Description: Ten days after tumor transplantation, the SW620 tumor-bearing mice were randomly divided into 8 groups with 5 mice in each group when the tumors reached about 100 mm^3. The animals were weighed before treatment, and the measurement was continued every 2 days. The two axes of the tumor were measured with a vernier micrometer (L, longest axis; W, shortest axis). Tumor volume (mm^3) was calculated as ½ (L × W^2). Anti-tumor activity was evaluated by tumor growth inhibition (TGI), which was the mean tumor weight (MTW) of the treated group (TG) relative to the saline-treated control group (CG) on day 15, as calculated according to the formula [47]. […].

[2] = In vitro release of BBA by dialysis method; assay type: physicochemical; settings: during the first 24 h, PBS with 0.5% Tween 80, pH 7.4, 37 °C
Description: Release of BBA from BBA/CM-β-CD and BBA/FA-PEG-CM-β-CD was investigated in vitro using the dialysis method. […] At different time points (0.25, 0.5, 1, 2, 3, 4, 6, 8, 12, 48, 72 and 96 h), 1.0 mL of release medium was removed and replaced with fresh medium.

SW620 xenografts [3] = experiment: H&E pathological analysis of tumor tissue (necrosis rate); assay type: in vivo, nude mice; settings: 15 days post-administration
Description: (§1) 15 days post-administration, all nude mice were sacrificed. The tumor tissues were collected, stained with H&E, and observed under an inverted microscope (400 ×). In addition, the TUNEL test was performed to detect cell apoptosis. Meanwhile, the expressions of both VEGFR-3 and Ki-67 were detected by ELISA.

VEGFR-3 = VEGFR-3 expression in tumor tissue; assay type: in vivo, nude mice; settings: tumor tissue of SW620 xenografts
Description: as §1

SW620 cells [4] = experiment: Cell cycle analysis, propidium iodide flow cytometry; assay type: cell-based, human; settings: 48 h
Description: For the cell cycle analysis, the cells in the different groups were washed three times with PBS and incubated with 1 mL of pre-cooled 70% alcohol at 4 °C for 24 h. After the cells were fixed, centrifuged at 300 × g for 5 min to collect the cells. 1 mL of cold PBS was added to re-suspend the cells and centrifuged at 300 × g for 5 min to remove the supernatant. 10 μL of RNaseA (50 ×) and 25 μL of propidium iodide (20 ×) in 0.5 mL of buffer were added. Finally, flow cytometry was used for cell cycle detection.

SW620 xenografts [5] = experiment: TUNEL test of tumor tissue (apoptosis rate); assay type: in vivo, nude mice; settings: 15 days post-administration
Description: as §1

[6] = Pharmacokinetics: butyric acid in plasma after gavage; assay type: in vivo, SW620 tumor-bearing BALB/C nude mice; settings: gavage 0.366 g/kg
Description: SW620 tumor-bearing mice were randomly divided into 3 groups (n = 5). […] The blood was collected respectively from the heart at 0.25, 0.5, 1, 2, 3, 4, 6, 8, 12, 24, 36, 48, and 72 h after administration. The whole blood was quickly centrifuged at 2000 × g for 5 min, and the upper plasma was precisely aspirated. Then 0.35 mL of methanol was added, vortexed for 2 min, and centrifuged at 3350 × g for 15 min. The supernatant was used to detect butyric acid by HPLC [45]. The pharmacokinetic parameters were calculated by non-compartmental analysis using Drug Analysis System (DAS 2.1.1, Shanghai, China).

CaCo-2 cells = experiment: MTT cell-growth inhibition; assay type: cell-based, human; settings: 24 h, 48 h, 72 h, 5-FU at 20 μg/mL
Description: (§2) CaCo-2 and SW620 cells were used as model cells to evaluate the anticancer effects in vitro. Single-cell suspension was prepared with DMEM containing 10% Gibco FBS and 1% penicillin–streptomycin. The cells were seeded in a 96-well plate (3500 cells/well) and incubated respectively for 24 h, 48 h, and 72 h at 37 °C with 5% CO2. […] The medium was removed, and cells were washed three times with PBS before incubation with MTT for 4 h at 37 °C. After the medium was removed, 100 μL of DMSO was added to the well for 10 min. The absorbance of the solution was measured at 570 nm by Multimode Reader (Bio Tek Synergy H1).

SW620 cells [7] = experiment: MTT cell-growth inhibition; assay type: cell-based, human; settings: 24 h, 48 h, 72 h, 5-FU at 20 μg/mL
Description: as §2

SW620 cells [8] = experiment: Cell apoptosis, Annexin V/PI flow cytometry; assay type: cell-based, human; settings: 30 μM, 48 h
Description: For the cell apoptosis detection, the cells in the different groups were washed three times with PBS and incubated with Annexin V-FITC solution for 10 min. Then, flow cytometry analysis was performed to detect the FITC and PI fluorescent intensity and report the percentage of the cell population within each plot quadrant.

Ki-67 = Ki-67 expression in tumor tissue; assay type: in vivo, nude mice; settings: tumor tissue of SW620 xenografts
Description: as §1

[9] = Solubility observed during carrier synthesis; assay type: physicochemical; settings: water
[10] = Kunming mice, before single oral gavage
[11] = Kunming mice, single oral gavage
[12] = serum, Kunming mice, 15th day after single oral gavage

Compound | Bodyweight Start (Kunming mice; [10]) | Bodyweight End (Kunming mice; [11]) | Amount (start/end), survival (Kunming mice; [11]) | ALT (Kunming mice; [12]) | AST (Kunming mice; [12]) | BUN (Kunming mice; [12]) | mean tumor inhibitory rate (SW620 xenografts [1]) | average necrosis rate (SW620 xenografts [3]) | VEGFR-3 positive area (VEGFR-3) | apoptosis rate (TUNEL) (SW620 xenografts [5]) | cell-proliferation inhibition effect (CaCo-2 cells) | cell-proliferation inhibition effect (SW620 cells [7]) | ALT (Kunming mice; mouse, in vivo, po) | Average weight change rate (Kunming mice; mouse, in vivo, po) | Bodyweight Start (Kunming mice; mouse, in vivo, po) | Cr (Kunming mice; mouse, in vivo, po) | also measured
2-butyryl oxy-5-butylaminyl benzoic acid [BBA] | 18.48 ± 0.63 g | 18.16 ± 0.63 g | 5/5 | 18.53 ± 0.65 U/L | 57.27 ± 10.20 U/L | 6.32 ± 0.97 mmol/L | 41.76% ± 7.56% | 20% | significantly reduced | 3.27% | some cell-proliferation inhibition effect | some cell-proliferation inhibition effect |  |  |  |  | Cr (Kunming mice; [12]): 8.63 ± 1.96 µmol/L; in vitro accumulative release of BBA [2]: 90%; cell cycle arrest (SW620 cells [4]): mainly arrested at the G0/G1 phase; AUC0-t [6]: 219.263 ± 5.360 µg·h/mL; CL [6]: 0.21267 ± 0.00447 mL/min/kg; Cmax [6]: 35923 ± 826 ng/mL; MRT0-t [6]: 4.769 ± 0.115 h; apoptotic rate including early apoptosis and late apoptosis (SW620 cells [8]): 32.21% ± 8.26%
Nc1ccc(O)c(C(=O)O)c1 [5-ASA, 5-aminosalicylic acid] |  |  | 5/5 |  |  |  | 31.33% ± 7.17% | 15% | significantly reduced | 2.44% |  |  | 23.20 ± 2.87 U/L | 4.63% | 18.58 ± 0.41 g | 9.55 ± 0.36 µmol/L | 
O=c1[nH]cc(F)c(=O)[nH]1 [5-FU, 5-fluorouracil] |  |  | 5/5 |  |  |  | 85.85% ± 2.89% | 50% | significantly reduced | 8.87% | drastically enhanced the cell proliferation inhibition rate compared with the BBA group | drastically enhanced the cell proliferation inhibition rate compared with the BBA group | 292.50 ± 6.60 U/L | − 4.46* % | 18.82 ± 0.61 g | 7.45 ± 2.91 µmol/L | serum biochemical analysis indexes (Kunming mice; mouse, in vivo): AST and ALT increased significantly; AST (Kunming mice; mouse, in vivo, po): 254.00 ± 53.4 U/L; BUN (Kunming mice; mouse, in vivo, po): 6.92 ± 1.20 mmol/L; Heart index (Kunming mice; mouse, in vivo, po): 0.81 ± 0.28%; Lung index (Kunming mice; mouse, in vivo, po): 0.85 ± 0.11%; decrease of average body weight (Kunming mice; mouse, in vivo, po): 4.46%; Ki-67 positive expression (Ki-67): significant decrease of the positive expression
Nc1nc2ncc(CNc3ccc(C(=O)N[C@@H](CCC(=O)O)C(=O)O)cc3)nc2c(=O)[nH]1 [FA, Folic acid] |  |  |  |  |  |  |  |  |  |  |  |  |  |  |  |  | solubility [9]: too poor
CCCC(=O)[O-].[Na+] [NaB, sodium butyrate] | 18.24 ± 0.53 g | 19.14 ± 0.52 g | 5/5 | 17.37 ± 1.77 U/L | 58.17 ± 4.75 U/L | 8.60 ± 0.98 mmol/L | 15.30% ± 5.61% | 10% | significantly reduced | 1.45% |  |  |  |  |  |  | Average weight change rate (Kunming mice; Kunming mice, single oral gavage, start to end): 4.93%
